Test results taken from patent US20140323306A1, “Substituted 1,2,5-Oxadiazole Compounds and Their Use as Herbicides” (BASF SE, priority 2011, published 2014).

System: CHEAL
Assay: Greenhouse herbicidal test, post-emergence treatment
Format: in vivo, Chenopodium album
Settings: post-emergence method, application rate 0.25 kg/ha; scale from 0 to 100
Description: The seeds of the test plants were shown separately for each species. For the post-emergence treatment, the test plants were first grown to a height of 3 to 15 cm, depending on the plant habit, and only then treated with the active ingredients which had been suspended or emulsified in water. For this purpose, the test plants were either shown directly and grown in the same containers, or they were first grown separately as seedlings and transplanted into the test containers a few days prior to treatment. Depending on the species, the plants were kept at 10-25° C. or 20-35° C. The test period extended over 2 to 4 weeks. During this time, the plants were tended, and their response to the individual treatments was evaluated. Evaluation was carried out using a scale from 0 to 100. 100 means no emergence of the plants, or complete destruction of at least the aerial moieties, and 0 means no damage, or normal course of growth. A good herbicidal activity is given at values of at least 70 and a very good herbicidal activity is given at values of at least 85. The plants used in the greenhouse experiments belonged to the following species: [table]

Cc1nonc1NC(=O)c1c(Cl)cc(Cl)cc1Cl [I′.A-2, 2,4,6-trichloro-N-(4-methyl-1,2,5-oxadiazol-3-yl)benzamide]
herbicidal activity against CHEAL: very good (a very good herbicidal activity is given at values of at least 85)
